# Experimental data reported in US20250243180A1, “TARGETED PROTEIN DEGRADATION” (Monte Rosa Therapeutics AG, priority 2023, published 2025).
# Read-outs that look alike come from different tables or passages of the source.
# Legend:
# IL-1β release = IL-1β release in human monocyte-derived macrophages, LPS/nigericin stimulation; type: cell-based; settings: Macrophage, 24 h pre-treatment, LPS 3 h then 10 μM nigericin 1 h, read-out: IL-1b IC50 (NIG)
# Description: (§1) Human monocytes were enriched and isolated from a buffy coat of healthy donor whole blood with a RosetteSep™ Human Monocyte Enrichment Cocktail (Cat.No. 15068, StemCell) and Ficoll-Plaque PLUS (Cat.No. H8889, Sigma). Monocytes were differentiated into macrophages by treatment with 100 ng/mL M-CSF for 6 days at 37° C., 5% CO2. Differentiated macrophages were seeded overnight (50,000 cells/well) in 100 µL of medium in a 96-well, white-bottom plate at 37° C., 5% CO2. Cells were treated with a concentration range of MGD for 24 hours prior to stimulation with nigericin. Macrophages were primed with […] LPS for 3 h followed by 1 h stimulation with 10 μM nigericin. Media of stimulated macrophages were collected and assayed for caspase 1 activity directly (Promega G9951), according to manufacturer's instructions. For IL-1β release assay, media of stimulated macrophages were collected and stored at −20° C., then thawed at 4° C. before assaying for IL-1β activity (Promega W6011), according to manufacturer's instructions.
# NEK7 = NEK7 (Homo sapiens (Human), UniProt Q8TDX7+Q96SW2); assay: NEK7 NanoBiT degradation assay in Cal51 NEK7 NanoBiT cell line; type: cell-based; settings: Cal51 NEK7 NanoBiT cells, 24 hours; for Dmax: CAL-51
# How it was run: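 Cal51 cells with CRISPR knock-in HiBiT-tagged endogenous NEK7 plus stable LgBiT, in live-cell Endurazine medium, seeded 16 h before dosing. Compounds at final 1 μM to 0.05 nM for 24 h at 37 °C, then luminescence read. Response normalized to plate controls and fitted with a 4-parameter logistic giving EC50.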
# CRBN-DDB1 = CRBN-DDB1 (Homo sapiens (Human), UniProt Q96SW2); assay: Compound binding to CRBN by HTRF assay
# How it was run: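 HTRF displacement of Cy5-thalidomide probe (100 nM) from His-tagged CRBN-DDB1 (2.5 nM) with anti-His terbium cryptate, in HEPES/NaCl/TCEP/EDTA/Tween20 buffer; 11-point 1:3 dilution series, 30 min at ambient temperature. Signal (665/620 nm) normalized to lenalidomide and DMSO controls; EC50 fitted, Ki by Cheng-Prusoff from geometric mean EC50.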
# Caspase-1 activity = Caspase-1 activity in human monocyte-derived macrophages, LPS/nigericin stimulation; type: cell-based; settings: Macrophage, 24 h pre-treatment, LPS 3 h then 10 μM nigericin 1 h, read-out: Caspase-1 IC50 (NIG)
# Description: as §1
# [1] = NEK7 degradation, read-out: NanoBiT Dmax
# [2] = NEK7 degradation, read-out: NanoBiT DC50
# Chain of NEK7 (Q8TDX7 whole entry): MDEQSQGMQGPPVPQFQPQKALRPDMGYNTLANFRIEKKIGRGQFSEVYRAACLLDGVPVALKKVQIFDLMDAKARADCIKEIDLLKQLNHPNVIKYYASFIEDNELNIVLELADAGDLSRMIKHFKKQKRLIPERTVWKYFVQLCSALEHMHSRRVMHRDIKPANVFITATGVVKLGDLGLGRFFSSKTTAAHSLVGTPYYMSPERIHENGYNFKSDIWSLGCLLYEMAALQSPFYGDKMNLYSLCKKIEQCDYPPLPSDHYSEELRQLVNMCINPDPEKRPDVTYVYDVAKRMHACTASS
# Chain of NEK7 (Q96SW2 whole entry): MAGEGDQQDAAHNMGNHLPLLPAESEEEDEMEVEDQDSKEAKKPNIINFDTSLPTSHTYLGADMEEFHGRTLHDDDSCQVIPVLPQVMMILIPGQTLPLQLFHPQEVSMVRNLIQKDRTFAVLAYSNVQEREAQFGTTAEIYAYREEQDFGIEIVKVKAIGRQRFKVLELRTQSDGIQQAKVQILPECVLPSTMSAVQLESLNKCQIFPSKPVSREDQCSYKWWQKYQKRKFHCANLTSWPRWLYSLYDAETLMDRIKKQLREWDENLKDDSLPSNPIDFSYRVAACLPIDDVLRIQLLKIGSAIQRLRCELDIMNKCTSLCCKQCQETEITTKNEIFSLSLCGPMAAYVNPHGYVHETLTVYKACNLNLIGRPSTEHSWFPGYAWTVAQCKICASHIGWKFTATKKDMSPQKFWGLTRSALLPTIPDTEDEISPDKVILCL
# Chain of NEK7 (Q16531 2-1140 partner): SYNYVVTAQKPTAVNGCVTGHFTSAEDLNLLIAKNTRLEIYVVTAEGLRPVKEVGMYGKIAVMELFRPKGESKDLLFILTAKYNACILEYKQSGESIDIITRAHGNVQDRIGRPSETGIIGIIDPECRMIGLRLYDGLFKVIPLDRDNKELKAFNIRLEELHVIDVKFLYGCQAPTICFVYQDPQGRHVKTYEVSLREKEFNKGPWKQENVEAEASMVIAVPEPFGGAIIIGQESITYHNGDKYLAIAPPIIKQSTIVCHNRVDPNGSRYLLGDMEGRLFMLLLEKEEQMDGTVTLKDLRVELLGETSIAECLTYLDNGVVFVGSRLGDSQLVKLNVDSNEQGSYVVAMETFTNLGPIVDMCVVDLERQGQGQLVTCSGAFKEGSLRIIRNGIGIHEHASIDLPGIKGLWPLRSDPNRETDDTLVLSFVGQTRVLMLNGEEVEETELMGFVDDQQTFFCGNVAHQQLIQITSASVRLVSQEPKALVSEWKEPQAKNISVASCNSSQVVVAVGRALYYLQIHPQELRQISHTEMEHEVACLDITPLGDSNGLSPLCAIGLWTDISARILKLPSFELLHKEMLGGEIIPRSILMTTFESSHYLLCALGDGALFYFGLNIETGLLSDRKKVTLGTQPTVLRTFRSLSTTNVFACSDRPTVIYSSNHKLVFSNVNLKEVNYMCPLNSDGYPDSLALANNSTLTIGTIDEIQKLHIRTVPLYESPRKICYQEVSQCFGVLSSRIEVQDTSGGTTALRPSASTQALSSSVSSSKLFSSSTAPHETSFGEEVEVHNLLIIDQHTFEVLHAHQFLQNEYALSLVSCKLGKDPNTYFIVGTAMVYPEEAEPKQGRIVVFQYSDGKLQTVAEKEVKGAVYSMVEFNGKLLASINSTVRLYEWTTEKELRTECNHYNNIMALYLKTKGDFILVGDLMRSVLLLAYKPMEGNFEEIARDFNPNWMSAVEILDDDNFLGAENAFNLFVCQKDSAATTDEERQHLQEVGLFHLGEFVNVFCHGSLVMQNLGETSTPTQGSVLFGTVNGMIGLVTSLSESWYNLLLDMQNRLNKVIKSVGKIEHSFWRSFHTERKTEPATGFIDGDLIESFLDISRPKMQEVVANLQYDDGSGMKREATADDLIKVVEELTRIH
# Chain of CRBN-DDB1 (Q96SW2 whole entry): as the sequence (Q96SW2 whole entry) above
# Chain of CRBN-DDB1 (Q16531 whole entry partner): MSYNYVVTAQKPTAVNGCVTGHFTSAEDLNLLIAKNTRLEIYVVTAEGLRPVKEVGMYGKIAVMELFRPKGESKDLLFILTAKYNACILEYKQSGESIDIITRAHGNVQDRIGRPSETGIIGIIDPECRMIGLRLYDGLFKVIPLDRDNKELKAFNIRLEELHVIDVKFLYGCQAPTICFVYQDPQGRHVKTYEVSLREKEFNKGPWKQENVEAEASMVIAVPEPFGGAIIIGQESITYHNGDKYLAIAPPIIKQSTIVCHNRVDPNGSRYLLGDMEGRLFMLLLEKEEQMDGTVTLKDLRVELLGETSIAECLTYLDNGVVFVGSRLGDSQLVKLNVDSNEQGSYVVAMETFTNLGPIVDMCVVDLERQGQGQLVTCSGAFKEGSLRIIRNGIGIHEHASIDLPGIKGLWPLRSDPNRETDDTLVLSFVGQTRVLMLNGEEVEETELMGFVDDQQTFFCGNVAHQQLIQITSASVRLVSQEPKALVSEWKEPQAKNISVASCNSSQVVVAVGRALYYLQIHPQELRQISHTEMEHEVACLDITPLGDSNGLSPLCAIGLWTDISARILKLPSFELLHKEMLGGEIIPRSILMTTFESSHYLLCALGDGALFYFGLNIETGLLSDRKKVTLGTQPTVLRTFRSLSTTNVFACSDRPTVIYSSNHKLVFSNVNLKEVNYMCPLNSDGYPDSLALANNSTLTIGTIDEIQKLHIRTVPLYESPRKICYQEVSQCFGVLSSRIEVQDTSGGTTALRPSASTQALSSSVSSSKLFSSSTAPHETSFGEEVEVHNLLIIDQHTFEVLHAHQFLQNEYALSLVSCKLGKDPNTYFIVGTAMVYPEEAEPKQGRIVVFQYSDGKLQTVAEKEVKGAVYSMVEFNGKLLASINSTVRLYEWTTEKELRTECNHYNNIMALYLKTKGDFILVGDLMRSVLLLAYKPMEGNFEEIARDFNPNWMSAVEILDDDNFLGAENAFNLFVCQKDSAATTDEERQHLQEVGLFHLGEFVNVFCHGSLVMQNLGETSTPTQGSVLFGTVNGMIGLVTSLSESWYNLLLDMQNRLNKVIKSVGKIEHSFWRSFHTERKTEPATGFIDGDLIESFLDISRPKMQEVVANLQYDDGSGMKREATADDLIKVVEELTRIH
Compound,IC50 (IL-1β release) [nM],Dmax (NEK7; read-out: NEK7 NanoBiT Dmax) [%],Dmax (NEK7; [1]) [%],DC50 (NEK7; read-out: NEK7 NanoBiT DC50) [nM],DC50 (NEK7; [2]) [nM],EC50 (CRBN-DDB1) [nM],"EC50 (CRBN-DDB1; HTRF class, Cereblon binding) [nM]",IC50 (Caspase-1 activity) [nM]
CC(C)(C(=O)NCc1cc(Cl)c(C2CCC(=O)NC2=O)c(Cl)c1)c1ccc2ocnc2c1 (stereo not shown) [Compound 17],0.03,98,> 75,0.1,≤ 100,20,≤ 100,
CC(C)(C(=O)NCc1cc(Cl)c(C2CCC(=O)NC2=O)c(Cl)c1)c1ncccn1 (stereo not shown) [Compound 34],7.36,78,> 75,28,≤ 100,140,100 to 1000,7.25
"CC(C)(C(=O)NCc1cc(Cl)c(C2CCC(=O)NC2=O)c(Cl)c1)c1ccccc1 (stereo not shown) [Compound 37, N-(3,5-dichloro-4-(2,6-dioxopiperidin-3-yl)benzyl)-2-methyl-2-phenylpropanamide]",0.31,97,> 75,1,≤ 100,30,≤ 100,0.14
CC(C)(C(=O)NCc1cc(Cl)c(C2CCC(=O)NC2=O)c(Cl)c1)c1ccc(S(N)(=O)=O)cc1 (stereo not shown) [Compound 76],0.83,97,> 75,2,≤ 100,70,≤ 100,0.49
CC(C)(C(=O)NCc1cc(Cl)c(C2CCC(=O)NC2=O)c(Cl)c1)c1ccnc(F)c1 (stereo not shown) [Compound 93],0.9,92,> 75,4,≤ 100,70,≤ 100,0.45
CC(C)(C(=O)NCc1cc(Cl)c(C2CCC(=O)NC2=O)c(Cl)c1)c1c(F)cccc1F (stereo not shown) [Compound 94],0.1,98,> 75,1,≤ 100,70,≤ 100,
"CC(C)(C(=O)NCc1cc(F)c(C2CCC(=O)NC2=O)c(Cl)c1)c1cc(F)ccn1 (stereo not shown) [Compound 260, N-(3-chloro-4-(2,6-dioxopiperidin-3-yl)-5-fluorobenzyl)-2-(4-fluoropyridin-2-yl)-2-methylpropanamide]",,47,≤ 50,480,100 to 1000,110,100 to 1000,
COc1ccc(C(C)(C)C(=O)NCc2cc(F)c(C3CCC(=O)NC3=O)c(Cl)c2)nc1 (stereo not shown) [Compound 261],,87,> 75,12,≤ 100,90,≤ 100,
COc1ccc(C(C)(C)C(=O)NCc2cc(F)c(C3CCC(=O)NC3=O)c(Cl)c2)nn1 (stereo not shown) [Compound 262],,88,> 75,12,≤ 100,80,≤ 100,
CC(F)(F)c1cnc(C(C)(C)C(=O)NCc2cc(Cl)c(C3CCC(=O)NC3=O)c(Cl)c2)cn1 (stereo not shown) [Compound 263],,90,> 75,7,≤ 100,100,100 to 1000,
CC(C)(C(=O)NCc1cc(F)c(C2CCC(=O)NC2=O)c(Cl)c1)c1cnc(OC(F)(F)F)cn1 (stereo not shown) [Compound 264],,68,50 to 75,100,≤ 100,130,100 to 1000,
"CC(C)(C(=O)NCc1cc(Cl)c(C2CCC(=O)NC2=O)c(Cl)c1)C1CCCO1 (stereo not shown) [Compound 265, N-(3,5-dichloro-4-(2,6-dioxopiperidin-3-yl)benzyl)-2-methyl-2-(tetrahydrofuran-2-yl)propanamide]",,56,50 to 75,474,100 to 1000,90,≤ 100,
"CC(C)(C(=O)NCc1cc(Cl)c(C2CCC(=O)NC2=O)c(Cl)c1)c1cn(C(C)(F)F)c(=O)cn1 (stereo not shown) [Compound 266, N-(3,5-dichloro-4-(2,6-dioxopiperidin-3-yl)benzyl)-2-(4-(1,1-difluoroethyl)-5-oxo-4,5-dihydropyrazin-2-yl)-2-methylpropanamide]",,82,> 75,15,≤ 100,120,100 to 1000,
